From publication PMC10275055, “Preventing recurrence in Sonic Hedgehog Subgroup Medulloblastoma using the OLIG2 inhibitor CT-179” (Research Square, 2023)
pIC50: −log10 of the molar value.

Tests used:
Med-813 MB cell line = test: Cell viability, 7 days treatment, Med-813; format: cell-based; conditions: Homo sapiens, 168 h; Med-813, 7 days
Experimental: (§1) Cell proliferation was determined by a CellTiter 96® Non-Radioactive Cell Proliferation Assay (Promega) kit. Absorbance at 490 nm was measured on a Biotek PowerWave (Biotek, USA) plate scanner to obtain raw data. Average absorbance from triplicate wells were plotted against concentration using GraphPad Prism software v.7.0 (GraphPad software). At the indicated time points, cells were stained using FITC-conjugated Annexin V and Annexin V binding buffer (BD Pharmingen™) according to the manufacturer’s instructions. Annexin V or propidium iodide (PI)-positive cells were analyzed using a Fortessa 5 Flow Cytometer (Becton Dickinson) and data was analyzed using FlowJo® software (Tree Star).

U87-MG glioma cells = test: Cell viability, OLIG2-negative U87-MG; format: cell-based; conditions: does not express OLIG2
Experimental: as §1

[1] = test system: OLIG2-driven transcription (human LHX8 promoter); test: LHX8 promoter luciferase reporter assay in Daoy cells; format: cell-based; conditions: OLIG2 overexpression, 250 nM, 24 hours
Source text: Promoter region of human LHX8 was amplified by PCR from human genomic DNA extracted from Med-813luci cells with primers shown in STAR METHODS. The promoter region was inserted into the pGL3-Basic luciferase-reporter vector (Promega). Flag-OLIG2 were synthesised as a gBlock flanked by the Nhel and BamHI restriction enzyme sites (Integrated DNA Technologies, Singapore). The gBlock was restriction digested and ligated into the expression vector, pLEX_307 (a gift from Joseph Rosenbluh, Monash University, Australia) to form pLX307/FLAG-OLIG2. Firefly luciferase-reporter construct (300 ng, pGL3-Basic or pGL3-LHX8), pRL Renilla luciferase SV40 Control Reporter Vector (Promega, 50 ng), and pLX307/Flag-OLIG2 (300 ng) or pLX307/empty vector (300 ng) were reverse co-transfected with Daoy cells (1 × 10^5/well) in 24-well plates using Lipofectamine™ 3000 (Invitrogen). CT-179 (250 nM) was added and incubated for 24 hours. The luciferase activity was examined using Dual-Glo® Luciferase Assay System (Promega) according to the manufacturer’s instructions, and the signal was normalised to vector controls.

R403 and R902 MBOs = test: MB explant organoids (MBOs), cleaved caspase-3 staining; format: cell-based, human; conditions: 1 μM, 48 hours, CT-179 alone
Source text: MB cell lines Daoy, UW228, and D283 were obtained from the American Type Culture Collection (ATCC) and cultured in RPMI supplemented with 1% Penicillin-Streptomycin, 1% GlutaMax-I CTS (Gibco) and 10% fetal bovine serum (FBS) (Gibco). MB002, D425 and PER547 primary cell lines were kindly provided by Dr. Tobias Schoep (Telethon Kids Institute, WA). Med-2312 PDX, Neo-113 PDX, Med-2112 PDX, Med-113 PDX and Med-813 PDX were filter tissues purchased from the Olson Laboratory (https://research.fhcrc.org/olson/en/btrl.html). Cell lines derived from the corresponding PDX tissues were labelled as primary cell lines. MB-R201 PDX is a MB PDX model generated and established in our laboratory. MB-R203 is a primary MB cell line. Primary cell lines were derived from MB patient specimens and cultured either in serum-free media grown as spheres or on matrigel. The serum-free media was prepared as previously described. Fresh surgically resected MB tissues were obtained from Queensland Children’s Tumor Bank. MB explant organoids (MBOs), R403 and R901, were generated by microdissection under a stereomicroscope (Zeiss) within a laminar flow biosafety cabinet. The MBOs were cultured in glioblastoma organoid (GBO) medium modified based on Jacob et al.. All cell lines were incubated at 37 °C under 5% CO2/95% humidified air atmosphere. […]

Cc1cc(NCCCN(C)C)nc(NC(=O)Nc2ccc(Cl)c(Cl)c2)n1 [CT-179]
pIC50 (Med-813 MB cell line): 6.02 | growth suppression (U87-MG glioma cells): not suppressed | luciferase expression (LHX8 promoter reporter) [1]: significantly decreased | cell death, cleaved caspase-3 staining (R403 and R902 MBOs): significant cell death
